ChEMBL document CHEMBL1201861, “Genomics of Drug Sensitity in Cancer screening data, Wellcome Trust Sanger Institute”

What was measured:
[1] = test system: D-542MG; test: cells; type: functional, cell-based; conditions: Homo sapiens
Description: SANGER: Inhibition of human D-542MG cell growth in a cell viability assay.

[2] = test system: EVSA-T; test: cells; type: functional, cell-based, Homo sapiens; conditions: Homo sapiens, EVSA-T;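 further: growth inhibition of EVSA-T cells, read out with a cell viability assay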
Description: SANGER: Inhibition of human EVSA-T cell growth in a cell viability assay.

[3] = test system: TUR; test: cells; type: functional, cell-based, Homo sapiens; conditions: Homo sapiens, TUR;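 further: growth inhibition of human TUR cells, read out with a cell viability assay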
Description: SANGER: Inhibition of human TUR cell growth in a cell viability assay.

[4] = test system: LU-99A; test: cells; type: functional, cell-based; conditions: Homo sapiens;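 further: growth inhibition of LU-99A cells, read out with a cell viability assay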
Description: SANGER: Inhibition of human LU-99A cell growth in a cell viability assay.

[5] = test system: TE-15; test: cells; type: functional, cell-based, Homo sapiens; conditions: Homo sapiens, TE-15;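 further: cell viability readout of growth inhibition in TE-15 cells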
Description: SANGER: Inhibition of human TE-15 cell growth in a cell viability assay.

[6] = test system: NCCIT; test: SANGER: Inhibition of human NCCIT cell growth in a cell viability assay.; type: functional, cell-based; conditions: Homo sapiens, NCCIT
[7] = test system: KYSE-450; test: cells; type: functional, cell-based; conditions: Homo sapiens;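 further: cell growth inhibition measured by a viability assay in human KYSE-450 cells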
Description: SANGER: Inhibition of human KYSE-450 cell growth in a cell viability assay.

[8] = test system: BEN; test: cells; type: functional, cell-based; conditions: Homo sapiens;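 further: growth inhibition of the BEN cell line, read out with a cell viability assay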
Description: SANGER: Inhibition of human BEN cell growth in a cell viability assay.

[9] = test system: SKG-IIIa; test: cells; type: functional, cell-based; conditions: Homo sapiens;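 further: cell growth inhibition, read out with a cell viability assay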
Description: SANGER: Inhibition of human SKG-IIIa cell growth in a cell viability assay.

[10] = test system: NCI-H1792; test: cells; type: functional, cell-based; conditions: Homo sapiens;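 further: growth inhibition of human NCI-H1792 cells, read out as cell viability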
Description: SANGER: Inhibition of human NCI-H1792 cell growth in a cell viability assay.

[11] = test system: A-427; test: cells; type: functional, cell-based; conditions: Homo sapiens;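 further: growth inhibition of human A-427 cells, read out by a cell viability assay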
Description: SANGER: Inhibition of human A427 cell growth in a cell viability assay.

[12] = test system: HCT-116; test: cells; type: functional, cell-based; conditions: Homo sapiens
Description: SANGER: Inhibition of human HCT-116 cell growth in a cell viability assay.

[13] = test system: HMV-2 cell line; test: cells; type: functional, cell-based; conditions: Homo sapiens;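 further: growth inhibition of HMV-II cells, read out with a cell viability assay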
Description: SANGER: Inhibition of human HMV-II cell growth in a cell viability assay.

[14] = test system: NCI-H460; test: cells; type: functional, cell-based; conditions: Homo sapiens;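 further: cell viability assay scoring growth inhibition of human NCI-H460 cells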
Description: SANGER: Inhibition of human NCI-H460 cell growth in a cell viability assay.

[15] = test system: SiHa; test: cells; type: functional, cell-based; conditions: Homo sapiens;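 further: Viability-based readout of growth inhibition in SiHa cells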
Description: SANGER: Inhibition of human SiHa cell growth in a cell viability assay.

[16] = test system: HT-1376; test: cells; type: functional, cell-based; conditions: Homo sapiens
Description: SANGER: Inhibition of human HT-1376 cell growth in a cell viability assay.

[17] = test system: GCT; test: cells; type: functional, cell-based; conditions: Homo sapiens;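 further: GCT cell line proliferation inhibition, read out with a cell viability assay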
Description: SANGER: Inhibition of human GCT cell growth in a cell viability assay.

[18] = test system: NCI-H661; test: cells; type: functional, cell-based; conditions: Homo sapiens;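 further: cell viability assay read-out, IC50 being the concentration that inhibits growth of the cells by half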
Description: SANGER: Inhibition of human NCI-H661 cell growth in a cell viability assay.

[19] = test system: SIMA; test: cells; type: functional, cell-based, Homo sapiens; conditions: Homo sapiens, SIMA;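 further: growth inhibition of SIMA cells, measured with a cell viability readout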
Description: SANGER: Inhibition of human SIMA cell growth in a cell viability assay.

[20] = test system: HSC-2; test: cells; type: functional, cell-based; conditions: Homo sapiens;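 further: growth inhibition of human HSC-2 cells, read out by a cell viability assay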
Description: SANGER: Inhibition of human HSC-2 cell growth in a cell viability assay.

[21] = test system: RCM-1; test: cells; type: functional, cell-based; conditions: Homo sapiens;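 further: growth inhibition of the RCM-1 line, determined with a cell viability readout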
Description: SANGER: Inhibition of human RCM-1 cell growth in a cell viability assay.

[22] = test system: SCLC-21H; test: cells; type: functional, cell-based, Homo sapiens; conditions: Homo sapiens, SCLC-21H;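 further: growth inhibition of cultured human SCLC-21H cells, read out with a cell viability assay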
Description: SANGER: Inhibition of human SCLC-21H cell growth in a cell viability assay.

[23] = test system: NCI-H2087; test: cells; type: functional, cell-based; conditions: Homo sapiens;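 further: growth inhibition determined with a cell viability readout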
Description: SANGER: Inhibition of human NCI-H2087 cell growth in a cell viability assay.

[24] = test system: CAL-33; test: cells; type: functional, cell-based; conditions: Homo sapiens;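 further: growth inhibition of CAL-33 cells, read out with a cell viability assay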
Description: SANGER: Inhibition of human CAL-33 cell growth in a cell viability assay.

[25] = test system: ESS-1; test: cells; type: functional, cell-based; conditions: Homo sapiens;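 further: growth inhibition of human ESS-1 cells, read out by a cell viability assay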
Description: SANGER: Inhibition of human ESS-1 cell growth in a cell viability assay.

[26] = test system: REH; test: cells; type: functional, cell-based, Homo sapiens; conditions: Homo sapiens, REH;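 further: growth inhibition of REH cells determined with a cell viability read-out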
Description: SANGER: Inhibition of human REH cell growth in a cell viability assay.

[27] = test system: G-402; test: cells; type: functional, cell-based; conditions: Homo sapiens
Description: SANGER: Inhibition of human G-402 cell growth in a cell viability assay.

[28] = test system: M14; test: cells; type: functional, cell-based; conditions: Homo sapiens;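 further: growth inhibition of M14 cells, read out with a cell viability assay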
Description: SANGER: Inhibition of human M14 cell growth in a cell viability assay.

[29] = test system: NCI-H2171; test: cells; type: functional, cell-based, Homo sapiens; conditions: Homo sapiens, NCI-H2171;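 further: growth inhibition of human NCI-H2171 cells, read out by a cell viability assay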
Description: SANGER: Inhibition of human NCI-H2171 cell growth in a cell viability assay.

[30] = test system: HGC-27; test: cells; type: functional, cell-based; conditions: Homo sapiens;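 further: growth inhibition of human HGC-27 cells, read out in a cell viability assay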
Description: SANGER: Inhibition of human HGC-27 cell growth in a cell viability assay.

[31] = test system: NCI-H2452; test: cells; type: functional, cell-based; conditions: Homo sapiens;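 further: growth inhibition of NCI-H2452 cells, read out with a cell viability assay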
Description: SANGER: Inhibition of human NCI-H2452 cell growth in a cell viability assay.

[32] = test system: NCI-H1755; test: cells; type: functional, cell-based; conditions: Homo sapiens;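 further: cell viability readout used to measure growth inhibition of NCI-H1755 cells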
Description: SANGER: Inhibition of human NCI-H1755 cell growth in a cell viability assay.

[33] = test system: NCI-H2141; test: cells; type: functional, cell-based, Homo sapiens; conditions: Homo sapiens, NCI-H2141;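 further: growth inhibition of human NCI-H2141 cells, read out with a cell viability assay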
Description: SANGER: Inhibition of human NCI-H2141 cell growth in a cell viability assay.

[34] = test system: HO-1-N-1; test: cells; type: functional, cell-based; conditions: Homo sapiens;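 further: growth inhibition of human HO-1-N-1 cells, read out with a cell viability assay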
Description: SANGER: Inhibition of human HO-1-N-1 cell growth in a cell viability assay.

[35] = test system: U2OS; test: cells; type: functional, cell-based, U-2-OS; conditions: Homo sapiens;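 further: growth inhibition of human U-2-OS cells, determined with a cell viability assay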
Description: SANGER: Inhibition of human U-2-OS cell growth in a cell viability assay.

[36] = test system: SK-LU-1; test: cells; type: functional, cell-based; conditions: Homo sapiens;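 further: cell viability assay measuring growth inhibition of human SK-LU-1 cells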
Description: SANGER: Inhibition of human SK-LU-1 cell growth in a cell viability assay.

[37] = test system: L-540; test: cells; type: functional, cell-based, Homo sapiens; conditions: Homo sapiens, L-540;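 further: growth inhibition of the human L-540 cell line, read out with a viability assay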
Description: SANGER: Inhibition of human L-540 cell growth in a cell viability assay.

[38] = test system: KYSE-520 cell line; test: cells; type: functional, cell-based; conditions: Homo sapiens;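 further: growth inhibition of human KYSE-520 cells, read out with a viability assay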
Description: SANGER: Inhibition of human KYSE-520 cell growth in a cell viability assay.

[39] = test system: GP5d; test: cells; type: functional, cell-based; conditions: Homo sapiens;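 further: growth inhibition of human GP5d cells, read out with a cell viability assay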
Description: SANGER: Inhibition of human GP5d cell growth in a cell viability assay.

[40] = test system: Huh-7; test: cells; type: functional, cell-based; conditions: Homo sapiens;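 further: HuH-7 cell growth inhibition, read out with a cell viability assay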
Description: SANGER: Inhibition of human HuH-7 cell growth in a cell viability assay.

[41] = test system: T98G; test: cells; type: functional, cell-based; conditions: Homo sapiens;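 further: growth inhibition of T98G cells, read out by a cell viability assay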
Description: SANGER: Inhibition of human T98G cell growth in a cell viability assay.

[42] = test system: CHP-126; test: cells; type: functional, cell-based, Homo sapiens; conditions: Homo sapiens, CHP-126
Description: SANGER: Inhibition of human CHP-126 cell growth in a cell viability assay.

[43] = test system: MKN-45; test: cells; type: functional, cell-based; conditions: Homo sapiens;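 further: growth inhibition of human MKN-45 cells, measured with a cell viability assay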
Description: SANGER: Inhibition of human MKN45 cell growth in a cell viability assay.

[44] = test system: NCI-H1437; test: cells; type: functional, cell-based; conditions: Homo sapiens;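 further: growth inhibition of human NCI-H1437 cells, read out by a cell viability assay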
Description: SANGER: Inhibition of human NCI-H1437 cell growth in a cell viability assay.

[45] = test system: MFE-280; test: cells; type: functional, cell-based; conditions: Homo sapiens;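 further: growth inhibition of MFE-280 cells, determined with a cell viability readout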
Description: SANGER: Inhibition of human MFE-280 cell growth in a cell viability assay.

[46] = test system: SK-MES-1; test: cells; type: functional, cell-based; conditions: Homo sapiens;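 further: growth inhibition of human SK-MES-1 cells, read out with a cell viability assay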
Description: SANGER: Inhibition of human SK-MES-1 cell growth in a cell viability assay.

[47] = test system: NCI-H1651; test: cells; type: functional, cell-based; conditions: Homo sapiens;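 further: Read-out is a cell viability assay, with IC50 expressing inhibition of NCI-H1651 cell growth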
Description: SANGER: Inhibition of human NCI-H1651 cell growth in a cell viability assay.

[48] = test system: BXPC-3; test: cells; type: functional, cell-based; conditions: Homo sapiens;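 further: growth inhibition of human BxPC-3 cells, read out by a cell viability assay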
Description: SANGER: Inhibition of human BxPC-3 cell growth in a cell viability assay.

[49] = test system: ChaGo-K-1; test: cells; type: functional, cell-based; conditions: Homo sapiens;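 further: growth inhibition of ChaGo-K-1 cells, read out with a cell viability assay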
Description: SANGER: Inhibition of human ChaGo-K-1 cell growth in a cell viability assay.

[50] = test system: SCC-9; test: cells; type: functional, cell-based; conditions: Homo sapiens;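 further: Read-out is a cell viability assay, with values giving inhibition of cell growth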
Description: SANGER: Inhibition of human SCC-9 cell growth in a cell viability assay.

[51] = test system: NB12; test: cells; type: functional, cell-based; conditions: Homo sapiens;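 further: growth inhibition of human NB12 cells, read out by a cell viability assay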
Description: SANGER: Inhibition of human NB12 cell growth in a cell viability assay.

[52] = test system: SIG-M5; test: cells; type: functional, cell-based, Homo sapiens; conditions: Homo sapiens, SIG-M5;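 further: cell viability assay read-out, measuring how strongly growth of cultured human SIG-M5 cells is inhibited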
Description: SANGER: Inhibition of human SIG-M5 cell growth in a cell viability assay.

[53] = test system: NCI-H28; test: cells; type: functional, cell-based; conditions: Homo sapiens;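 further: growth inhibition of human NCI-H28 cells, read out as cell viability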
Description: SANGER: Inhibition of human NCI-H28 cell growth in a cell viability assay.

[54] = test system: T84; test: cells; type: functional, cell-based; conditions: Homo sapiens
Description: SANGER: Inhibition of human T84 cell growth in a cell viability assay.

[55] = test system: SW1783; test: cells; type: functional, cell-based; conditions: Homo sapiens
Description: SANGER: Inhibition of human SW1783 cell growth in a cell viability assay.

[56] = test system: SK-MEL-28; test: cells; type: functional, cell-based; conditions: Homo sapiens
Description: SANGER: Inhibition of human SK-MEL-28 cell growth in a cell viability assay.

[57] = test system: CAPAN-1; test: cells; type: functional, cell-based; conditions: Homo sapiens
Description: SANGER: Inhibition of human CAPAN-1 cell growth in a cell viability assay.

[58] = test system: PF-382; test: cells; type: functional, cell-based, Homo sapiens; conditions: Homo sapiens, PF-382
Description: SANGER: Inhibition of human PF-382 cell growth in a cell viability assay.

[59] = test system: NCI-H2122; test: cells; type: functional, cell-based; conditions: Homo sapiens
Description: SANGER: Inhibition of human NCI-H2122 cell growth in a cell viability assay.

[60] = test system: H4; test: cells; type: functional, cell-based; conditions: Homo sapiens
Description: SANGER: Inhibition of human H4 cell growth in a cell viability assay.

[61] = test system: HPAF-II; test: cells; type: functional, cell-based; conditions: Homo sapiens
Description: SANGER: Inhibition of human HPAF-II cell growth in a cell viability assay.

Measured: IC50

COc1ccc(-c2cc3nccn3c(Nc3ncccc3C(N)=O)n2)cc1OC
4.53 µM: [20]
2.79 µM: [23]
2.41 µM: [58]
0.799 µM: [17]
6.9 µM: [27]
2.36 µM: [6]
2.7 µM: [30]
1.28 µM: [5] | [59]
6.5 µM: [42]
7.18 µM: [19]
1.8 µM: [44]
2.25 µM: [26]
3.98 µM: [12]
3.23 µM: [54]
0.848 µM: [52]
4.08 µM: [25]
2.32 µM: [7]
3.25 µM: [16]
4.16 µM: [57]
2.57 µM: [3]
1.81 µM: [46]
0.664 µM: [13]
4.6 µM: [11]
2.03 µM: [36]
2.86 µM: [48]
2.46 µM: [14]
4.15 µM: [47]
> 8 µM: all other assays above

COC(=O)[C@H](CCSC)NC(=O)c1ccc(NC[C@@H](N)CS)cc1-c1ccccc1
> 1.02 µM: all assays above

OC[C@H](Cc1ccccc1)Nc1nc(Oc2ccc3c(c2)CCC3)nc2c1ncn2Cc1ccc(-c2ccccc2)cc1
6.89 µM: [44]
1.86 µM: [60]
2.73 µM: [14]
8.47 µM: [7]
0.654 µM: [52]
2.31 µM: [30]
6.34 µM: [13]
2.72 µM: [59]
8.44 µM: [46]
> 10.2 µM: all other assays above

O=S(=O)(O)c1ccc2cc(/N=N/c3cc(S(=O)(=O)O)c4cccnc4c3O)ccc2c1
> 16 µM: all assays above
